Results from patent US20240252488A1 (KOREA RESEARCH INSTITUTE OF CHEMICAL TECHNOLOGY, priority 2020, published 2024).

Tests used:
FADD−/− Jurkat cells = test: Necroptosis inhibition assay, TNF-α-induced necroptosis (CellTiter-Glo 2.0); format: cell-based, human; conditions: TNF-α 15 ng/mL; for Necroptosis inhibition assay (Rescue %) 1 μM: compound 1 μM; for Necroptosis inhibition assay (Rescue %) 10 μM: compound 10 μM
Procedure, shortened: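 Compound is added to cells at final concentrations of 0.1, 1 and 10 μM and left 30 minutes at room temperature. Necroptosis is induced with 15 ng/mL TNF-α, culture continues 20 to 24 hours at 37° C, and ATP-based luminescence reports viability.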

MLKL [1] = molecular target: T1, MLKL (Homo sapiens, UniProt Q8NB16); test: Measurement of binding affinity with MLKL receptor (competitive binding assay, Kd); parameters: made in house; host or cells: HEK 293 cell line (T7 phage in E. coli BL21-derived host is also described)
T1 sequence (Q8NB16 1-471): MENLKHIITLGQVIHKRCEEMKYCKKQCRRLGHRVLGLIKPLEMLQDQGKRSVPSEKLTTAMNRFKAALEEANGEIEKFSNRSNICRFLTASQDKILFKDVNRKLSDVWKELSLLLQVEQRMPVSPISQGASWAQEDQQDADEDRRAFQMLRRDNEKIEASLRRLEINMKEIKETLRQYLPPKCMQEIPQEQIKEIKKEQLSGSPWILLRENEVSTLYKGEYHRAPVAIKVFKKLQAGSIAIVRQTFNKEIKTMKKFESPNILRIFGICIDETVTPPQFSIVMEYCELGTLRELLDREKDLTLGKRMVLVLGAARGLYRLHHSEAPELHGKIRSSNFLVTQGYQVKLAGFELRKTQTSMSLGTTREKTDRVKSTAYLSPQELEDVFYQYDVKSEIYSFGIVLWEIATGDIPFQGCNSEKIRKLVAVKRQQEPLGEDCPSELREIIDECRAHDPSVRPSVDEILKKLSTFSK
Procedure, shortened: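 Kd comes from a bead-based competition format: compound-dependent loss of DNA-tagged, HEK 293-expressed MLKL capture, measured as eluate kinase by qPCR. Final DMSO is 0.9%.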

MLKL [2] = molecular target: T1, MLKL; test: MLKL degradation assay in HepG2 cell line (western blot); format: cell-based; parameters: endogenous in cells; host or cells: HepG2 or HaCaT; conditions: cell line not given; for Degradation assay (Degradation %) 1 μM: compound 1 μM; for Degradation assay (Degradation %) 10 μM: compound 10 μM
Procedure, shortened: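 Chemiluminescent western blot signal reports remaining MLKL protein in HepG2 cells after 20-24 h treatment with compound at a final 1 or 10 μM. Equal protein (10-15 μg, BCA) is loaded per lane.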

SMILES | Necroptosis inhibition assay (Rescue %) 1 μM (FADD−/− Jurkat cells; FADD−/− Jurkat cells) | Necroptosis inhibition assay (Rescue %) 10 μM (FADD−/− Jurkat cells; FADD−/− Jurkat cells) | Kd (MLKL [1]) | Degradation assay (Degradation %) 1 μM (MLKL [2]) | Degradation assay (Degradation %) 10 μM (MLKL [2]) | Necroptosis inhibition assay (Rescue %) 1 μM (FADD−/− Jurkat cells) | Necroptosis inhibition assay (Rescue %) 10 μM (FADD−/− Jurkat cells)
Nc1ncc(-c2cnn(C3CCN(CCCN4CCN(CC5CCN(C(=O)COc6ccc7c(c6)C(=O)N(C6CCC(=O)NC6=O)C7=O)CC5)CC4)CC3)c2)nc1C(=O)O[C@@H](C(=O)Nc1ccc(F)cc1)c1ccccc1 (stereo partly drawn) [TDH-440, (R)-2-((4-fluorophenyl)amino)-2-oxo-1-phenylethyl 3-amino-6-(1-(1-(3-(4-((1-(2-((2-(2,6-dioxopiperidin-3-yl)-1,3-dioxoisoindolin-5-yl)oxy)acetyl)piperidin-4-yl)methyl)piperazin-1-yl)propyl)piperidin-4-yl)-1H-pyrazol-4-yl)pyrazine-2-carboxylate] | 65.67% | 24.42% | 0.51 nM | 81.51% | 84.75% |  | 
Nc1ncc(-c2cnn(C3CCN(CC4CCN(C(=O)Cc5cccc(NC6=CC(=O)N(C7CCC(=O)NC7=O)C6=O)c5)CC4)CC3)c2)nc1C(=O)O[C@@H](C(=O)Nc1ccc(F)cc1)c1ccccc1 (stereo partly drawn) [TDH-516, (R)-2-((4-fluorophenyl)amino)-2-oxo-1-phenylethyl 3-amino-6-(1-(1-((1-(2-(3-((1-(2,6-dioxopiperidin-3-yl)-2,5-dioxo-2,5-dihydro-1H-pyrrol-3-yl)amino)phenyl)acetyl)piperidin-4-yl)methyl)piperidin-4-yl)-1H-pyrazol-4-yl)pyrazine-2-carboxylate] | 17.46% | 5.65% | 9.7 nM | 81.44% | 77.67% |  | 
Nc1ncc(-c2cnn(C3CCN(CCCN4CCN(CC5CCN(C(=O)CNc6ccc7c(c6)C(=O)N(C6CCC(=O)NC6=O)C7=O)CC5)CC4)CC3)c2)nc1C(=O)O[C@@H](C(=O)Nc1ccc(F)cc1)c1ccccc1 (stereo partly drawn) [TDH-441, (R)-2-((4-fluorophenyl)amino)-2-oxo-1-phenylethyl 3-amino-6-(1-(1-(3-(4-((1-((2-(2,6-dioxopiperidin-3-yl)-1,3-dioxoisoindolin-5-yl)glycyl)piperidin-4-yl)methyl)piperazin-1-yl)propyl)piperidin-4-yl)-1H-pyrazol-4-yl)pyrazine-2-carboxylate] | 71.58% | −15.73% | 0.69 nM | 87.59% | 87.7% |  | 
Nc1ncc(-c2cnn([C@H]3CCN(CC4CCN(C(=O)CNc5cccc6c5C(=O)N(C5CCC(=O)NC5=O)C6=O)CC4)C3)c2)nc1C(=O)OC(C(=O)Nc1ccc(F)cc1)c1ccccc1 (stereo partly drawn) [TDH-281, 2-((4-fluorophenyl)amino)-2-oxo-1-phenylethyl 3-amino-6-(1-((3S)-1-((1-((2-(2,6-dioxopiperidin-3-yl)-1,3-dioxoisoindolin-4-yl)glycyl)piperidin-4-yl)methyl)pyrrolidin-3-yl)-1H-pyrazol-4-yl)pyrazine-2-carboxylate] |  |  | 5.7 nM | 45.01% | 10.1% | 29.65% | 26.95%
Nc1ncc(-c2cnn(C3CCN(C(=O)c4cn(C5CCN(C(=O)CNc6cccc7c6C(=O)N(C6CCC(=O)NC6=O)C7=O)CC5)cn4)CC3)c2)nc1C(=O)O[C@@H](C(=O)Nc1ccc(F)cc1)c1ccccc1 (stereo partly drawn) [TDH-356, (R)-2-((4-fluorophenyl)amino)-2-oxo-1-phenylethyl 3-amino-6-(1-(1-(1-(1-((2-(2,6-dioxopiperidin-3-yl)-1,3-dioxoisoindolin-4-yl)glycyl)piperidin-4-yl)-1H-imidazole-4-carbonyl)piperidin-4-yl)-1H-pyrazol-4-yl)pyrazine-2-carboxylate] |  |  | 4.6 nM | 22.83% |  | 5.27% | 0.50%
